The values that follow come from PMC8840173 (Molecules, 2022).

Values after ≈ are worked out from the molar mass of the structure shown. Where two headings read alike, the source gives them in different places.

One series deals with butyryl cholinesterase. More on the design: method as in PMID 23046385. The conditions noted are these: read-out: inhibitory activity against butyryl cholinesterase IC50; cited from earlier work.
Series [1] concerns lung cancer cell line A549. The conditions noted are these: cited from earlier work.
A short description of the next series: physchem. The format is physicochemical. The conditions noted are these: for light transmittance of the diluted solution: 1 h, 1.82 mM. The protocol: All the metabolites obtained during this study were more polar than their parent compound (−)-α-bisabolol (1) and proposed to have higher aqueous solubility. In order to confirm the improvement in solubility, a modified kinetic solubility test was carried out using the stock solutions of compounds 1–12 (20 mM in dimethyl sulfoxide). […] This was confirmed by measuring the light transmittance of the diluted solutions.
The solubility of compounds 1–12 was evaluated by the modified kinetic solubility assay. Compounds 1–12 were dissolved in dimethyl sulfoxide (DMSO) to yield 20 mM stock solutions, then 10 μL of the compound stock solution was diluted with 100 μL water. After all the solutions were prepared, the vials were placed under room temperature and allowed to mix for 1 h. After this, the light transmittance was measured at a scan width of 5 nm over the range of 390 to 650 nm using a SpectraMax 190 Microplate reader (Molecular Devices, Sunnyvale, CA, USA). After centrifugation, the supernatant was analyzed by HPLC under 200 nm using a Zorbax SB-CN (250 × 10 mm) column with 60% methanol as mobile phase at a flow rate of 2 mL/min.

For a further series, the system named is promastigotes. Also on record: method as in PMID 25448354, PMID 27616730. The conditions noted are these: in vitro, cited from earlier work.
On the set-up of series [2]: method as in PMID 24894548. The note with it: cited from earlier work.
Series [3] concerns LPS-induced production of NO and PGE2. More on the design: method as in PMID 21771629. The note with it: dose-dependent; cited from earlier work.
Series [4] concerns healthy and infected hamsters. The conditions noted are these: cited from earlier work.
Details of series [5]: method as in earlier work. The conditions noted are these: antioxidant activity; cited from earlier work.

With 14-hydroxymethyl caryophyllene oxide, the concentration for half-maximal inhibition (IC50) on butyryl cholinesterase was 10.9 µM.
In the case of `C=C(CO)C1CCC2=CC(=O)CC(C)C2(C)C1` (centres unmarked) [13-hydroxynootkatone], the “cytotoxic activity IC50” value in series [1] is 36 µg/mL.
Regarding `CC(C)=CCC[C@](C)(O)[C@@H]1CC=C(C)CC1` [Compound 1, (−)-α-Bisabolol], in “physchem” (10 μL of 20 mM DMSO stock diluted with 100 μL water), the “appearance after dilution (turbidity / precipitates)” value was “White turbidity”. The “light transmittance of the diluted solution” value (shortened to “light transmittance”) in “physchem” was “less than 50%”. The solubility at 1 h in the series “physchem” (aqueous with cosolvent or surfactant or cyclodextrin, kinetic from dmso stock) turned out to be 260 µM (≈ 57.8 µg/mL). For the same compound, the “antileishmanial activity IC50” value in the series on promastigotes (24 h) is 8.07 µg/mL; in the series with promastigotes (48 h) it was 4.26 µg/mL. Further, the “effect on TPA-induced ear thickness and histopathological damage in the ear tissue” value in series [2] was “significantly inhibited”. Moreover, in series [3], the “effect on LPS-induced production of NO and PGE2” value is recorded as “significantly reduce”. Moreover, the “toxicity or side effects after administration” value in series [4] was “did not lead to the appearance of toxicity or side effects”. Moreover, in series [5], the “IC50 for DPPH radical scavenging ability” value was 43880 µg/mL.
In the case of `CC(C)=CCC[C@](C)(O)[C@@H]1CC=C(C)[C@H](O)C1` [Compound 2, (1R,5R,7S)-5-hydroxy-α-bisabolol], the “light transmittance” value in “physchem” is 90%.
Turning to `CC1=CC[C@@](O)([C@]2(C)CC[C@@H](C(C)(C)O)O2)CC1` [Compound 5, (1R,7S,10S)-1-hydroxybisabolol oxide B], the “light transmittance” value in the series “physchem” is given as 90%.
For the compound `CC(C)=CCC[C@](C)(O)[C@H]1CC[C@](C)(O)[C@H](O)C1` [Compound 8, (1S,3R,4S,7S)-3,4-dihydroxy-α-bisabolol], the “light transmittance” value in “physchem” turned out to be 90%.
Take `CC(C)=CCC[C@](C)(O)[C@@H]1CC=C(CO)CC1` [Compound 11, 15-hydroxy-α-bisabolol]: the “light transmittance” value in the series “physchem” amounted to 90%.
For the compound `C=C1CC[C@H]2O[C@]2(C)CC[C@@H]2[C@@H]1CC2(C)C` [caryophyllene oxide], on butyryl cholinesterase, the concentration for half-maximal inhibition (IC50) was 208 µM.
`CC1=CC[C@@H]([C@]2(C)CC[C@H](O)C(C)(C)O2)CC1` [α-Bisabolol oxide A]: the “IC50 for DPPH radical scavenging ability” value in series [5] was 1500 µg/mL.

What is called IC50 is the concentration needed to halve the response being measured. In general, solubility refers to the dissolved amount per volume that the medium holds. A high value points to much dissolved substance.
